Patent publication US5643870A, “O-acylated cyclosporins” (Sandoz Ltd., priority 1992, dated 1997)
≈ marks a conversion by molar mass, not a printed value.

Experiments:
[1] = test system: plaque forming, i.e. antibody producing, cells (lymphocytes from the spleen of OFI mice co-cultured with sheep erythrocytes); format: cell-based; details: 3 days co-culture with sheep erythrocytes
Protocol: Ca. 10^7 lymphocytes from the spleen of OFI, female mice are co-cultured with ca. 3×10^7 sheep erythrocytes for 3 days. Test substance is added to the incubation medium in varying concentrations. Lymphocytes are harvested and plated onto agar with fresh sheep erythrocytes as antigen. Sensitised lymphocytes secrete antibody that coats the erythrocytes, which lyse to form a plaque in the presence of complement. Activity is assessed by reduction in the number of plaque forming, i.e. antibody producing, cells. Cyclosporins in accordance with the present invention reduce the numbers of plaque forming cells at concentrations of the order of from 0.03 to 0.05 μg/ml.

[2] = test system: lymphocytes from the spleen of Balb/c mice incubated with lymphocytes from the spleen of CBA mice
Protocol: 0.5×10^6 lymphocytes from the spleen of female (8-10 weeks) Balb/c mice are incubated for 5 days in 0.2 ml cell growth medium with ca. 0.5×10^6 lymphocytes from the spleen of female (8-10 weeks) CBA mice. Test substance is added to the medium at various concentrations. Activity is assessed by ability to suppress proliferation associated DNA synthesis as determined by incorporation of radiolabelled thymidine.

SMILES: CC[C@@H]1NC(=O)[C@H]([C@H](O)[C@H](C)C/C=C/COC(=O)OC)N(C)C(=O)[C@H](C(C)C)N(C)C(=O)[C@H](CC(C)C)N(C)C(=O)[C@H](CC(C)C)N(C)C(=O)[C@@H](C)NC(=O)[C@H](C)NC(=O)[C@H](CC(C)C)N(C)C(=O)[C@H](C(C)C)NC(=O)[C@H](CC(C)C)N(C)C(=O)CN(C)C1=O [Example 1, [(8'-Methoxycarbonyloxy)MeBmt]^1 -Ciclosporin]
- IC50, test 1.2 Mishell-Dutton test (number of plaque forming cells) [1]: 0.043 µg/mL
- IC50, test 1.1 murine mixed lymphocyte reaction (thymidine incorporation) [2]: 0.015 µg/mL (≈ 0.0117 µM)
